Source: publication PMC10742973 (International Journal of Molecular Sciences, 2023)

Target: T1, MtMetAP1c (Mycobacterium tuberculosis, UniProt P9WK19)
T1 construct: gene map
Test: biochemical
Conditions: read-out: IC50 (μM) / MtMetAP1c + 100 μM CoCl2

T1 sequence (P9WK19 whole entry): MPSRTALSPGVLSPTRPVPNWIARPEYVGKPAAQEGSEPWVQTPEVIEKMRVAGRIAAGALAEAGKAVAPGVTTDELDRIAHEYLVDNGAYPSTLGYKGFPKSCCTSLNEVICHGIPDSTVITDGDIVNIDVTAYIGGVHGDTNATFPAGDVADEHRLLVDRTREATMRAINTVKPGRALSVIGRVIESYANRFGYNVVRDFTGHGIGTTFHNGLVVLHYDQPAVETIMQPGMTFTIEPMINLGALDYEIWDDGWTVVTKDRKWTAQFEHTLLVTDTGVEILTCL

Which IC50 does the source give for `Cc1nc(-c2ccccn2)nc(N(C)Cc2ccccc2)c1Cl` [OJT008, N-benzyl-5-chloro-N,6-dimethyl-2-pyridin-2-ylpyrimidin-4-amine] here?
Its IC50 is 11.8 ± 1.3 µM.
